Read-outs that look alike come from different tables or passages of the source.
Legend:
[1] = target: IRAK1 (Homo sapiens (Human), UniProt P51617); experiment: IRAK1 enzymatic assay (ADP-Glo luminescence); assay type: biochemical
Description: In this assay, IRAK1 hydrolyses ATP and autophosphorylates. Measurement of IRAK-1 inhibition is performed in 384-well format based on luminescence assay (ADP-Glo™ Kinase Assay from Promega). Purified human recombinant IRAK1 ([…]) and serial diluted compounds in DMSO (range of concentration from 10 μM to 0.5 nM) or controls (1% DMSO) are incubated for 15 minutes at RT in assay buffer containing 50 mM Hepes pH 7.0, Fatty acid-free BSA 0.1%, Dithiothreitol (DTT) 2 mM, MgCl2 10 mM, EGTA 0.5 mM, Triton X-100 0.01%. The kinase reaction is then initiated by the addition of ATP at a concentration of 1μM. After 2 hours of incubation at RT, the reaction is stopped and the unconsumed ATP depleted by the addition of ADP-Glo™ Reagent according to supplier instructions. After 40 minutes of incubation at RT, the Kinase Detection Reagent is then added to the assay plate according to supplier instructions. After 20 minutes of incubation at RT, the luminescence signal is measured with a luminometer (PerkinElmer Envision or equivalent reader).

[2] = target: IRAK4 (Homo sapiens (Human), UniProt Q9NWZ3); experiment: IRAK4 enzymatic assay (ADP-Glo luminescence); assay type: biochemical; settings: human purified recombinant His-TEV-IRAK4 (1-460), ATP 2 μM, STK1-biotin peptide 300 nM
IRAK4, sequence (Q9NWZ3 whole entry): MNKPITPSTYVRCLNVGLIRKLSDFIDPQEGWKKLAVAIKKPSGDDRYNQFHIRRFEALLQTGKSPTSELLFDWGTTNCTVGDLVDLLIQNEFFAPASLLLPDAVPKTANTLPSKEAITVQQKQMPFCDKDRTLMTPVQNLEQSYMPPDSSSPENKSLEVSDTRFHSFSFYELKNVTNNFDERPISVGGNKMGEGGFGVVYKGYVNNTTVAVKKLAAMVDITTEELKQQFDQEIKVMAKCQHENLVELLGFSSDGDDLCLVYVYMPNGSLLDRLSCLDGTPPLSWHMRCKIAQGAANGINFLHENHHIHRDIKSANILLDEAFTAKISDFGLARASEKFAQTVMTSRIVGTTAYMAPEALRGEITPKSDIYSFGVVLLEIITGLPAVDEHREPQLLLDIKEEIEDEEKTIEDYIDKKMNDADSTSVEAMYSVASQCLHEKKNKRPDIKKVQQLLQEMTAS
Description: IRAK4 is a human purified recombinant enzyme (His-TEV-IRAK4 (1-460)).
In this assay, IRAK4 hydrolyses ATP, autophosphorylates and phosphorylates a Serine/Threonine generic peptidic substrate (STK: 61ST1BLC from CisBio International). Measurement of IRAK-4 inhibition is performed in 384-well format based on a luminescence assay (ADP-Glo™ Kinase Assay from Promega). Purified human recombinant IRAK4 (0.3 μg/ml) and serial diluted compounds in DMSO (range of concentration from 10 μM to 0.5 nM) or controls (1% DMSO) are incubated for 15 minutes at RT in assay buffer containing 50 mM Hepes pH 7.0, Fatty acid-free BSA 0.1%, Dithiothreitol (DTT) 2 mM, MgCl2 10 mM, EGTA 0.5 mM, Triton X-100 0.01%, MnCl2 5 mM. The kinase reaction is then initiated by the addition of ATP (2 μM) and the peptidic substrate STK1-biotin peptide (300 nM). After 2 hours of incubation at RT, the reaction is stopped and the unconsumed ATP depleted by the addition of ADP-Glo™ Reagent according to supplier instructions. After 40 minutes of incubation at RT, the Kinase Detection Reagent is then added to the assay plate according to supplier instructions. After 20 minutes of incubation at RT, the luminescence signal is measured with a plate-reading luminometer (PerkinElmer Envision or equivalent reader).

[3] = human purified recombinant His-TEV-IRAK1 (194-712), ATP 1 μM, read-out: IRAK1 IC50

IRAK1, sequence (P51617 194-712): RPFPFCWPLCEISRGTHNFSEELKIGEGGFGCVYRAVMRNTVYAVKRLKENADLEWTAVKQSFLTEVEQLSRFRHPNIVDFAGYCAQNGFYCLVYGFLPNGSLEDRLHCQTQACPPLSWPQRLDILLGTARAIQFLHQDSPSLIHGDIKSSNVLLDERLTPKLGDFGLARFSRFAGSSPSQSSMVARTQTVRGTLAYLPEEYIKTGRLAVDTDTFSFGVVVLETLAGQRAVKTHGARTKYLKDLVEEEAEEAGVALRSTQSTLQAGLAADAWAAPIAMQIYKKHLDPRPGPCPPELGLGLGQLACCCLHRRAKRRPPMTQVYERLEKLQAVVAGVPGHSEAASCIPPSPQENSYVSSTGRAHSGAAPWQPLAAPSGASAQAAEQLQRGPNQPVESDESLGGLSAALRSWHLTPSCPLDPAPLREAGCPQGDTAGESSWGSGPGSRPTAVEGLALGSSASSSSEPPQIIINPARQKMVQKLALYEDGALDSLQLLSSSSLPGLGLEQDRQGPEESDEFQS

Row | SMILES | ring closure, yield after HPLC (the molecule shown is the open-chain precursor, multicomponent bond, 20-membered ring, Cs2CO3/KI, microwave, DMSO, 22.0 mM, 110.0 °C) [%] | ring closure, yield after HPLC (from NCCOCCn1cc(-c2cccc(C(=O)Nc3cn(C4CCOCC4)nc3C(=O)[O-])c2)cn1, amide bond, 17-membered ring, BOP/DIEA, DMF, 20.7 mM) [%] | IC50 [1, 3] [µM] | IC50 [2] [µM] | IC50 [1] [µM]
1 | Cn1cc(NC(=O)c2cccc(-c3cnn(CCCl)c3)n2)c(C(=O)NC2CCNC[C@H]2O)n1 (stereo partly drawn) | 23.6 |  |  |  | 
2 | O=C1Nc2cn(C3CCOCC3)nc2C(=O)NCCOCCn2cc(cn2)-c2cccc1c2 [Compound 20, 15-(oxan-4-yl)-8-oxa-4,5,11,14,15,18-hexaazatetracyclo[18.3.1.1^2,^5.0^13,^1^7]pentacosa-1(23),2(25),3,13,16,20(24),21-heptaene-12,19-dione] |  | 21.8 | > 5 | > 5 | 
3 | CN(C)CCN1CCC(n2cc3c(n2)C(=O)NCCCCCCn2cc(cn2)-c2cccc(n2)C(=O)N3)CC1 [Compound 23, 6-{1-[2-(dimethylamino)ethyl]piperidin-4-yl}-4,5,12,15,16,19,25-heptaazatetracyclo[19.3.1.1^2,^5.0^1^4,^1^8]hexacosa-1(24),2(26),3,14,17,21(25),22-heptaene-13,20-dione] |  |  |  | < 0.1 | 0.1 to 1
4 | Cn1cc2c(n1)C(=O)NCC1CCN(CCn3cc(cn3)-c3cccc(n3)C(=O)N2)C1 (stereo not drawn) [Compound 9, 17-methyl-4,5,8,13,16,17,20,26-octaazapentacyclo[20.3.1.1^2,^5.1^8,^11.0^1^5,^1^9]octacosa-1(25),2(28),3,15,18,22(26),23-heptaene-14,21-dione] |  |  |  | < 0.1 | 1 to 5
5 | O=C1Nc2cn(C3CCOCC3)nc2C(=O)NCCS(=O)(=O)CCCn2cc(cn2)-c2cccc1n2 [Compound 15, 16-(oxan-4-yl)-9λ^6-thia-4,5,12,15,16,19,25-heptaazatetracyclo[19.3.1.1^2,^5.0^1^4,^1^8]hexacosa-1(24),2(26),3,14,17,21(25),22-heptaene-9,9,13,20-tetrone] |  |  |  | < 0.1 | 0.1 to 1
6 | Cn1cc2c(n1)C(=O)NCC(O)C(O)CCCn1cc(cn1)-c1cccc(n1)C(=O)N2 (stereo not drawn) [Compound 31, 9,10-dihydroxy-16-methyl-4,5,12,15,16,19,25-heptaazatetracyclo[19.3.1.1^2,^5.0^1^4,^1^8]hexacosa-1(24),2(26),3,14,17,21(25),22-heptaene-13,20-dione] |  |  |  | < 0.1 | 0.1 to 1
7 | CN1CCNC(=O)c2nn(C)cc2NC(=O)c2cccc(n2)-c2cnn(c2)CCOC1=O [Compound 5, 10,17-dimethyl-8-oxa-4,5,10,13,16,17,20,26-octaazatetracyclo[20.3.1.1^2,^5.0^1^5,^1^9]heptacosa-1(25),2(27),3,15,18,22(26),23-heptaene-9,14,21-trione] |  |  | < 0.1 | < 0.1 | 
8 | O=C1Nc2cn(C3CCN(C(=O)C4CC4(F)F)CC3)nc2C(=O)NCCCCCCn2cc(cn2)-c2cccc1n2 (stereo not drawn) [Compound 18, 16-[1-(2,2-difluorocyclopropanecarbonyl)piperidin-4-yl]-4,5,12,15,16,19,25-heptaazatetracyclo[19.3.1.1^2,^5.0^1^4,^1^8]hexacosa-1(24),2(26),3,14,17,21 (25),22-heptaene-13,20-dione] |  |  |  | < 0.1 | 0.1 to 1
9 | O=C1Nc2cn(C3CCN(CCO)CC3)nc2C(=O)NCCCCCCn2cc(cn2)-c2cccc1n2 [Compound 22, 16-[1-(2-hydroxyethyl)piperidin-4-yl]-4,5,12,15,16,19,25-heptaazatetracyclo[19.3.1.1^2,^5.0^1^4,^1^8]hexacosa-1 (24),2(26),3,14,17,21(25),22-heptaene-13,20-dione] |  |  |  | < 0.1 | 0.1 to 1
10 | Cn1cc2c(n1)C(=O)NCCCC(O)C(O)Cn1cc(cn1)-c1cccc(n1)C(=O)N2 (stereo not drawn) [Compound 32, 7,8-dihydroxy-16-methyl-4,5,12,15,16,19,25-heptaazatetracyclo[19.3.1.1^2,^5.0^1^4,^1^8]hexacosa-1(24),2(26),3,14,17,21(25),22-heptaene-13,20-dione] |  |  |  | < 0.1 | 0.1 to 1
11 | Cn1cc2c(n1)C(=O)NCCCCCCn1cc(cn1)-c1cccc(n1)C(=O)N2 [Compound 3, 16-methyl-4,5,12,15,16,19,25-heptaazatetracyclo[19.3.1.1^2,^5.0^1^4,^1^8]hexacosa-1(24),2(26),3,14,17,21(25),22-heptaene-13,20-dione] |  |  |  | < 0.1 | 0.1 to 1
12 | Cn1cc2c(n1)C(=O)NC1CCN(CC1O)C(=O)OCCn1cc(cn1)-c1cccc(n1)C(=O)N2 (stereo not drawn) [Compound 21, 26-hydroxy-6-methyl-22-oxa-2,5,6,9,18,19,24,30-octaazapentacyclo[22.2.2.1^11,^1^5.1^1^6,^1^9.0^4,^8]triaconta-4,7,11(30),12,14,16(29),17-heptaene-3,10,23-trione] |  |  |  | 0.1 to 1 | 1 to 5
13 | O=C1Nc2cn(C3CCOCC3)nc2C(=O)NCCCCCCn2cc(cn2)-c2cccc1n2 [Compound 12, 16-(oxan-4-yl)-4,5,12,15,16,19,25-heptaazatetracyclo[19.3.1.1^2,^5.0^1^4,^1^8]hexacosa-1(24),2(26),3,14,17,21 (25),22-heptaene-13,20-dione] |  |  |  | < 0.1 | 0.1 to 1
14 | Cn1cc2c(n1)C(=O)NCC/C=C/CCn1cc(cn1)-c1cccc(n1)C(=O)N2 [Compound 28, (8E)-16-methyl-4,5,12,15,16,19,25-heptaazatetracyclo[19.3.1.1^2,^5.0^1^4,^1^8]hexacosa-1(24),2(26),3,8,14,17,21(25),22-octaene-13,20-dione] |  |  |  | < 0.1 | 0.1 to 1
15 | Cn1cc2c(n1)C(=O)NCCCCn1cc(cn1)-c1cccc(n1)C(=O)N2 [Compound 4, 4-methyl-4,5,10,13,14, 17,23-heptaazatetracyclo[17.3.1.1^2,^5.0^12,^1^6]tetracosa-1(22),2(24),3,12,15,19(23),20-heptaene-11,18-dione] |  |  |  | 1 to 5 | 1 to 5

Source: patent publication US9815836B2, “Macrocyclic compounds as IRAK1/4 inhibitors and uses thereof” (Merck Patent GmbH, priority 2015, dated 2017)
